Results from patent US20240398828A1, “HETERO-ATOM CONTAINING COMPOUNDS AND USES THEREOF” (Kumquat Biosciences Inc., priority 2021, published 2024).

What was measured:
PTPN2 (i.e., TC-PTP) = molecular target: T1, PTPN2 (i.e., TC-PTP) (Homo sapiens, UniProt P17706); experiment: Phosphatase activity assay (DiFMUP substrate), PTPN2; assay type: biochemical; conditions: compounds binned ≤1 uM or >1 uM
T1 sequence (P17706 1-415): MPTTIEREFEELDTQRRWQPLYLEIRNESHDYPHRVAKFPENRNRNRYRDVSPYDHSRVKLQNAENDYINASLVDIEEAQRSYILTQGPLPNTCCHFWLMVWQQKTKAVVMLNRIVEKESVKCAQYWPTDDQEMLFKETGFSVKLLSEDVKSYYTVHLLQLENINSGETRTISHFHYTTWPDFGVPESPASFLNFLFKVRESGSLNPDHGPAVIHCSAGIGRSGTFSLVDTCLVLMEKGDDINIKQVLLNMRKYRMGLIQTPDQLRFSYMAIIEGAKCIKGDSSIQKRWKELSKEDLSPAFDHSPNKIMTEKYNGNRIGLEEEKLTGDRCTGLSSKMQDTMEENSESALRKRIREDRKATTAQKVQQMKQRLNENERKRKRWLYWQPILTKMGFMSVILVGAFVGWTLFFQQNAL
Procedure, shortened: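 First, serially diluted inhibitor is mixed about 2 minutes with enzyme in pH 7.5 HEPES/NaCl/EDTA/DTT/Tween-20 buffer. Next, DiFMUP is added at the enzyme's Km, approximately 45 μM for PTPN2. Finally, DiFMU appearance is read continuously at room temperature and rates are fitted for IC50.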

PTPN1 (i.e., PTP1B) = molecular target: T2, PTPN1 (i.e., PTP1B) (Homo sapiens, UniProt P18031); experiment: Phosphatase activity assay (DiFMUP substrate), PTP1B; assay type: biochemical; conditions: compounds binned ≤1 uM or >1 uM
T2 sequence (P18031 1-435): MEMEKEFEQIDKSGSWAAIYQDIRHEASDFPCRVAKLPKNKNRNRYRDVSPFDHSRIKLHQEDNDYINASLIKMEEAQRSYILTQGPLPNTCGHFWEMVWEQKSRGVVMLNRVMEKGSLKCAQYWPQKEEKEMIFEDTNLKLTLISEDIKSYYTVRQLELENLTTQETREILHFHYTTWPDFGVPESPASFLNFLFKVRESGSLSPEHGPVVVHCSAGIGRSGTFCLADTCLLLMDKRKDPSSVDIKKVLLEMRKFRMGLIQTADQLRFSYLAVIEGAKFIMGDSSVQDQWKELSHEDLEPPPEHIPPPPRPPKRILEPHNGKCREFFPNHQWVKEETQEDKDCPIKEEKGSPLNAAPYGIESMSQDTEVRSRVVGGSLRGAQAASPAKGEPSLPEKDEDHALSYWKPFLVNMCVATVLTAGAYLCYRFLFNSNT
Procedure, shortened: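 Continuous fluorogenic readout of DiFMUP dephosphorylation at room temperature, substrate set at Km for each phosphatase (about 45 μM in the PTPN2 assay). The buffer contains 1 mM DTT and 0.001% Tween-20, pH 7.5.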

Compound	IC50 (PTPN2 (i.e., TC-PTP)) [µM]	IC50 (PTPN1 (i.e., PTP1B)) [µM]
CC(N)c1cc(-c2ccc(O)c(N3CC(=O)NS3(=O)=O)c2F)[nH]n1 (stereo not drawn) [Compound 297, 5-(3-(3-(1-aminoethyl)-1H-pyrazol-5-yl)-2-fluoro-6-hydroxyphenyl)-1,2,5-thiadiazolidin-3-one 1,1-dioxide]	≤ 1	≤ 1
O=C1CN(c2c(O)ccc(C3CCN(S(=O)(=O)C4CC4)CC3)c2F)S(=O)(=O)N1 [Compound 285, 5-(3-(1-(cyclopropylsulfonyl)piperidin-4-yl)-2-fluoro-6-hydroxyphenyl)-1,2,5-thiadiazolidin-3-one 1,1-dioxide]	≤ 1	≤ 1
O=C1CN(c2c(O)ccc(-c3cc(N4CC5(CCC5)C4)n[nH]3)c2F)S(=O)(=O)N1 [Compound 323, 5-(3-(3-(2-azaspiro[3.3]heptan-2-yl)-1H-pyrazol-5-yl)-2-fluoro-6-hydroxyphenyl)-1,2,5-thiadiazolidin-3-one 1,1-dioxide]	≤ 1	≤ 1
CC(C)CCOC1CCCN(c2cc(O)c(N3CC(=O)NS3(=O)=O)c(F)c2)C1 (stereo not drawn) [Compound 201, 5-(2-fluoro-6-hydroxy-4-(3-(isopentyloxy)piperidin-1-yl)phenyl)-1,2,5-thiadiazolidin-3-one 1,1-dioxide]	≤ 1	≤ 1
O=C1CN(c2c(O)ccc(-c3cc(C4CC4(F)F)n[nH]3)c2F)S(=O)(=O)N1 (stereo not drawn) [Compound 364, 5-(3-(3-(2,2-difluorocyclopropyl)-1H-pyrazol-5-yl)-2-fluoro-6-hydroxyphenyl)-1,2,5-thiadiazolidin-3-one 1,1-dioxide]	≤ 1	≤ 1
O=C1CN(c2c(O)ccc(-c3cc(C4CC4(F)F)nn3C(F)F)c2F)S(=O)(=O)N1 (stereo not drawn) [Compound 538, 5-(3-(3-(2,2-difluorocyclopropyl)-1-(difluoromethyl)-1H-pyrazol-5-yl)-2-fluoro-6-hydroxyphenyl)-1,2,5-thiadiazolidin-3-one 1,1-dioxide]	≤ 1	≤ 1
CC(C)CCn1cc(-c2cc(O)cc(N3CC(=O)NS3(=O)=O)c2F)cn1 [Compound 221, 5-(2-fluoro-5-hydroxy-3-(1-isopentyl-1H-pyrazol-4-yl)phenyl)-1,2,5-thiadiazolidin-3-one 1,1-dioxide]	> 1	> 1
O=C1CN(c2c(O)ccc(-c3cc(N4CCCC4)n[nH]3)c2F)S(=O)(=O)N1 [Compound 343, 5-(2-fluoro-6-hydroxy-3-(3-(pyrrolidin-1-yl)-1H-pyrazol-5-yl)phenyl)-1,2,5-thiadiazolidin-3-one 1,1-dioxide]	≤ 1	≤ 1
C=CCCC1C=C(c2ccc(O)c(N3CC(=O)NS3(=O)=O)c2F)CN1 (stereo not drawn) [Compound 471, 5-(3-(5-(but-3-en-1-yl)-2,5-dihydro-1H-pyrrol-3-yl)-2-fluoro-6-hydroxyphenyl)-1,2,5-thiadiazolidin-3-one 1,1-dioxide]	≤ 1	≤ 1
N#CNC(=N)N1CC=C(c2ccc(O)c(N3CC(=O)NS3(=O)=O)c2F)C1 [Compound 476, N-cyano-3-(3-(1,1-dioxido-4-oxo-1,2,5-thiadiazolidin-2-yl)-2-fluoro-4-hydroxyphenyl)-2,5-dihydro-1H-pyrrole-1-carboximidamide]	≤ 1	≤ 1
N#CCCc1cc(-c2ccc(O)c(N3CC(=O)NS3(=O)=O)c2F)n[nH]1 [Compound 373, 3-(3-(3-(1,1-dioxido-4-oxo-1,2,5-thiadiazolidin-2-yl)-2-fluoro-4-hydroxyphenyl)-1H-pyrazol-5-yl)propanenitrile]	≤ 1	≤ 1
CC(C)n1cc(-c2ccc(O)c(N3CC(=O)NS3(=O)=O)c2F)cn1 [Compound 108, 5-(2-fluoro-6-hydroxy-3-(1-isopropyl-1H-pyrazol-4-yl)phenyl)-1,2,5-thiadiazolidin-3-one 1,1-dioxide]	≤ 1	≤ 1
Cc1cc(-c2ccc(O)c(N3CC(=O)NS3(=O)=O)c2F)nn1C1CC1 [Compound 340, 5-(3-(1-cyclopropyl-5-methyl-1H-pyrazol-3-yl)-2-fluoro-6-hydroxyphenyl)-1,2,5-thiadiazolidin-3-one 1,1-dioxide]	≤ 1	≤ 1
Cc1csc(-c2ccc(O)c(N3CC(=O)NS3(=O)=O)c2F)c1 [Compound 103, 5-(2-fluoro-6-hydroxy-3-(4-methylthiophen-2-yl)phenyl)-1,2,5-thiadiazolidin-3-one 1,1-dioxide]	≤ 1	≤ 1
O=C1CN(c2c(O)ccc(C3=CC(=O)OC3)c2F)S(=O)(=O)N1 [Compound 513, 5-(2-fluoro-6-hydroxy-3-(5-oxo-2,5-dihydrofuran-3-yl)phenyl)-1,2,5-thiadiazolidin-3-one 1,1-dioxide]	≤ 1	≤ 1
Cc1cnn(-c2ccc(O)c(N3CC(=O)NS3(=O)=O)c2F)c1 [Compound 386, 5-(2-fluoro-6-hydroxy-3-(4-methyl-1H-pyrazol-1-yl)phenyl)-1,2,5-thiadiazolidin-3-one 1,1-dioxide]	≤ 1	≤ 1

Continued, values first:

IC50 (PTPN2 (i.e., TC-PTP)) [µM]	IC50 (PTPN1 (i.e., PTP1B)) [µM]	Compound
≤ 1	≤ 1	O=C1CN(c2c(O)ccc(-c3cc(C4(C(F)F)CC4)n[nH]3)c2F)S(=O)(=O)N1 [Compound 526, 5-(3-(3-(1-(difluoromethyl)cyclopropyl)-1H-pyrazol-5-yl)-2-fluoro-6-hydroxyphenyl)-1,2,5-thiadiazolidin-3-one 1,1-dioxide]
≤ 1	≤ 1	O=C1CN(c2c(O)ccc(-c3cc(N4CCC5(CCC5)C4)n[nH]3)c2F)S(=O)(=O)N1 [Compound 248, 5-(3-(3-(6-azaspiro[3.4]octan-6-yl)-1H-pyrazol-5-yl)-2-fluoro-6-hydroxyphenyl)-1,2,5-thiadiazolidin-3-one 1,1-dioxide]
≤ 1	≤ 1	CNC(=O)n1nc(-c2ccc(O)c(N3CC(=O)NS3(=O)=O)c2F)cc1C1CC1 [Compound 543, 5-cyclopropyl-3-(3-(1,1-dioxido-4-oxo-1,2,5-thiadiazolidin-2-yl)-2-fluoro-4-hydroxyphenyl)-N-methyl-1H-pyrazole-1-carboxamide]
≤ 1	≤ 1	Cn1ncc2cc(-c3ccc(O)c(N4CC(=O)NS4(=O)=O)c3F)ccc21 [Compound 112, 5-(2-fluoro-6-hydroxy-3-(1-methyl-1H-indazol-5-yl)phenyl)-1,2,5-thiadiazolidin-3-one 1,1-dioxide]
≤ 1	≤ 1	O=C1CN(c2c(O)ccc(-c3ccc4ncccc4c3)c2F)S(=O)(=O)N1 [Compound 150, 5-(2-fluoro-6-hydroxy-3-(quinolin-6-yl)phenyl)-1,2,5-thiadiazolidin-3-one 1,1-dioxide]
≤ 1	≤ 1	O=C1CN(c2c(O)ccc(-c3ccn(CC4CCCCC4)c3)c2F)S(=O)(=O)N1 [Compound 272, 5-(3-(1-(cyclohexylmethyl)-1H-pyrrol-3-yl)-2-fluoro-6-hydroxyphenyl)-1,2,5-thiadiazolidin-3-one 1,1-dioxide]
≤ 1	≤ 1	CC1CCC(n2cc(-c3ccc(O)c(N4CC(=O)NS4(=O)=O)c3F)cn2)CC1 (stereo not drawn) [Compound 304, 5-(2-fluoro-6-hydroxy-3-(1-(4-methylcyclohexyl)-1H-pyrazol-4-yl)phenyl)-1,2,5-thiadiazolidin-3-one 1,1-dioxide]
≤ 1	≤ 1	N#C[C@H]1CC[C@H](n2cc(-c3ccc(O)c(N4CC(=O)NS4(=O)=O)c3F)cn2)CC1 [Compound 305, (1r,4r)-4-(4-(3-(1,1-dioxido-4-oxo-1,2,5-thiadiazolidin-2-yl)-2-fluoro-4-hydroxyphenyl)-1H-pyrazol-1-yl)cyclohexane-1-carbonitrile]
≤ 1	≤ 1	O=C1CN(c2c(O)ccc(C3CCC(NS(=O)(=O)C4CC4)CC3)c2F)S(=O)(=O)N1 (stereo not drawn) [Compound 450, N-(4-(3-(1,1-dioxido-4-oxo-1,2,5-thiadiazolidin-2-yl)-2-fluoro-4-hydroxyphenyl)cyclohexyl)cyclopropanesulfonamide]
≤ 1	≤ 1	O=C1CN(c2c(O)ccc(-c3cnn(CC(F)F)c3)c2F)S(=O)(=O)N1 [Compound 525, 5-(3-(1-(2,2-difluoroethyl)-1H-pyrazol-4-yl)-2-fluoro-6-hydroxyphenyl)-1,2,5-thiadiazolidin-3-one 1,1-dioxide]
≤ 1	≤ 1	CCCCNc1ccc(-c2ccc(O)c(N3CC(=O)NS3(=O)=O)c2F)cn1 [Compound 215, 5-(3-(6-(butylamino)pyridin-3-yl)-2-fluoro-6-hydroxyphenyl)-1,2,5-thiadiazolidin-3-one 1,1-dioxide]
